Experiments:
[1] = target: T1, BuChE (EC 3.1.1.8) from horse serum (Equus caballus, UniProt P81908); assay: biochemical; type: biochemical; conditions: for IC50: BuChE from horse serum, mean ± SEM of three experiments; for selective index (selectivity on BuChE): selectivity on BuChE over AChE (eeAChE, eqBuChE)
T1 construct: purchased Sigma-Aldrich C0663; host or cells: equine serum
Description: (§1) AChE (EC 3.1.1.7, Type VI-S, from electric eel, C3389; from human, C1682) and BuChE (EC 3.1.1.8, from equine serum, C0663; from human, B4186), 5,5'-dithiobis (2-nitrobenzoic acid) (DTNB, D218200), acetylthiocholine iodide (ATC, A5751), and butyrylthiocholine iodide (BTC, B3253) were obtained from Sigma-Aldrich (St. Louis, MO).
(§2) The inhibitory effects of the synthesised compounds in this paper were evaluated according to our previously reported method. […] ATC/BTC iodide solution (0.075 M) was prepared in deionised water. […] The assay buffer was prepared as follows: potassium dihydrogen phosphate (1.36 g, 10 mmol) was dissolved in 100 ml of water. The pH of the solution was then adjusted to 8.0 ± 0.1 with KOH. Stock solutions of the test samples were dissolved in ethanol to give a final concentration of 10^−4 M when diluted to the final volume of 3.32 ml. For each compound, a dilution series of at least five different concentrations (normally 10^−5–10^−9 M) were prepared.
(§3) For measurement, a cuvette containing 3.0 ml of phosphate buffer, 100 µL of AChE or BuChE, 100 µL of DTNB, and 100 µL of the test compound solution were added in sequence. The reaction was initiated after adding 20 µL of ATC or BTC, and the solution was mixed immediately. […] For the reference value, 100 µL of water replaced the test compound solution. For the blank control, additionally 100 µL of water replaced the enzyme solution. The measurement for each concentration was assayed in triplicate. GraphPad Prism 5 was used for data processing. The inhibition curve was fitted by plotting percentage enzyme activity (100% for the reference) versus logarithm of test compound concentration. The IC50 values were calculated according to the curve, and the data were shown in mean ± SEM.
(§4) The inhibitory effects on ChEs of all the target compounds were determined according to Ellman’s method. AChE from electrophorus electricus (eeAChE) and BuChE from equine serum (eqBuChE) were used in the assays.

[2] = target: T2, AChE (EC 3.1.1.7) from electric eel (Electrophorus electricus, UniProt O42275); assay: biochemical; conditions: for IC50: AChE from electric eel, mean ± SEM of three experiments; for Selectivity index (SI) = BuChE IC50/AChE IC50: eqBuChE IC50 / eeAChE IC50
T2 construct: purchased Sigma-Aldrich C3389
T2 sequence (O42275 24-633): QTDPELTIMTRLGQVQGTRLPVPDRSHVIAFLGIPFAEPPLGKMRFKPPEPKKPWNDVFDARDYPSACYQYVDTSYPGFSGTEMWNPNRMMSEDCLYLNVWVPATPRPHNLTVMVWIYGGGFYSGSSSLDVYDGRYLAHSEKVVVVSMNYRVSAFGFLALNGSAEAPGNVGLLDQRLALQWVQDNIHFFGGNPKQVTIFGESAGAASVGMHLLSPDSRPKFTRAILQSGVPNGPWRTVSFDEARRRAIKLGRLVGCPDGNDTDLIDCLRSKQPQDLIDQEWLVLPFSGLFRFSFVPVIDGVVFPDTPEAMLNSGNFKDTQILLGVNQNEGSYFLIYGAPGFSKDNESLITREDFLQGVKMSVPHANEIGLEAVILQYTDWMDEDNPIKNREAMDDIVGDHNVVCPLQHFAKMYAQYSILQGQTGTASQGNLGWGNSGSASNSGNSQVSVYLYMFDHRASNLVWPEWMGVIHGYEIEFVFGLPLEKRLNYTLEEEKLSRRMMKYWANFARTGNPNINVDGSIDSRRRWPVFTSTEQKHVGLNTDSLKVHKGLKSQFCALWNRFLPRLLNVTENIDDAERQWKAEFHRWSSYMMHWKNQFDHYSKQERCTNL
Description: as §1, §2, §3, §4

T1 sequence (P81908 whole entry): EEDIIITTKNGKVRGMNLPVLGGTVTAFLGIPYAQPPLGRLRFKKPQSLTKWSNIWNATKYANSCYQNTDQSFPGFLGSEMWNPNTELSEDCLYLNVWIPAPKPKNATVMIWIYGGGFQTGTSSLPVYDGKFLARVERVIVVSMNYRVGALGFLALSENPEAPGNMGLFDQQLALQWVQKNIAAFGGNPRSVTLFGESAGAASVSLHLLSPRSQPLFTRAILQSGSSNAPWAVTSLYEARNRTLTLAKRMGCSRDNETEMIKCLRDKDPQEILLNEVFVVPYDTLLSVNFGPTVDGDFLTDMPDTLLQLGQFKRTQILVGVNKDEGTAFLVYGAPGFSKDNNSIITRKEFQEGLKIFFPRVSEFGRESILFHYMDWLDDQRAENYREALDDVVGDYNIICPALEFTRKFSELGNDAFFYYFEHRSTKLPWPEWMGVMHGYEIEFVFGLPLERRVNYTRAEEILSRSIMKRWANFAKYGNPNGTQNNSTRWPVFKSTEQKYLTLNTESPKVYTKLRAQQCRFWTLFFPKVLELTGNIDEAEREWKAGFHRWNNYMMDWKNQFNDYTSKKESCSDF

Structure (SMILES) | IC50 [1] | IC50 [2] | Selectivity index (SI) = BuChE IC50/AChE IC50 [2] | selective index (selectivity on BuChE) [1]
O=C(/C=C/c1ccccc1)NCCNc1c2c(nc3ccccc13)CCCC2 [Compound 9] | 69.1 ± 27.3 nM | 328 ± 122 nM | 0.2 | 
O=C(/C=C/c1ccccc1)NCCCNc1c2c(nc3ccccc13)CCCC2 [Compound 10] | 3.5 ± 0.4 nM | 100 ± 5.2 nM | 0.03 | 28.7
O=C(C=Cc1ccccc1)NCCCCNc1c2c(nc3ccccc13)CCCC2 [Compound 11, N-(4-((1,2,3,4-tetrahydroacridin-9-yl)amino)butyl)cinnamamide] | 2.9 ± 0.4 nM | 209 ± 76 nM | 0.01 | 71.17
O=C(C=Cc1ccccc1)NCCCCCCNc1c2c(nc3ccccc13)CCCC2 [Compound 12, N-(6-((1,2,3,4-tetrahydroacridin-9-yl)amino)hexyl)cinnamamide] | 34.4 ± 16.6 nM | 26.5 ± 10.7 nM | 1.3 | 
O=C(/C=C/c1ccccc1)NCCCCCCCCNc1c2c(nc3ccccc13)CCCC2 [Compound 13] | 7.8 ± 4.7 nM | 22.8 ± 9.2 nM | 0.3 | 
Cc1ccccc1/C=C/C(=O)NCCCCCCNc1c2c(nc3ccccc13)CCCC2 [Compound 14, (E)-N-(6-((1,2,3,4-tetrahydroacridin-9-yl)amino)hexyl)-3-(o-tolyl)acrylamide] | 6 ± 1.5 nM | 36 ± 12.3 nM | 0.2 | 
Cc1cccc(/C=C/C(=O)NCCCCCCNc2c3c(nc4ccccc24)CCCC3)c1 [Compound 15, (E)-N-(6-((1,2,3,4-tetrahydroacridin-9-yl)amino)hexyl)-3-(m-tolyl)acrylamide] | 37.3 ± 7.2 nM | 53.1 ± 6.9 nM | 0.7 | 
Cc1ccc(/C=C/C(=O)NCCCCCCNc2c3c(nc4ccccc24)CCCC3)cc1 [Compound 16, (E)-N-(6-((1,2,3,4-tetrahydroacridin-9-yl)amino)hexyl)-3-(p-tolyl)acrylamide] | 54.4 ± 11.7 nM | 22 ± 3.7 nM | 2.5 | 
O=C(/C=C/c1ccccc1[N+](=O)[O-])NCCCCCCNc1c2c(nc3ccccc13)CCCC2 [Compound 17, (E)-3-(2-nitrophenyl)-N-(6-((1,2,3,4-tetrahydroacridin-9-yl)amino)hexyl)acrylamide] | 3.6 ± 0.3 nM | 17.5 ± 3.7 nM | 0.2 | 
O=C(/C=C/c1cccc([N+](=O)[O-])c1)NCCCCCCNc1c2c(nc3ccccc13)CCCC2 [Compound 18, (E)-3-(3-nitrophenyl)-N-(6-((1,2,3,4-tetrahydroacridin-9-yl)amino)hexyl)acrylamide] | 6.8 ± 0.6 nM | 3.6 ± 0.5 nM | 1.9 | 
O=C(/C=C/c1ccc(Cl)c([N+](=O)[O-])c1)NCCCCCCNc1c2c(nc3ccccc13)CCCC2 [Compound 20, (E)-3-(4-chloro-3-nitrophenyl)-N-(6-((1,2,3,4-tetrahydroacridin-9-yl)amino)hexyl)acrylamide] | 11.1 ± 2.2 nM | 6.2 ± 2 nM | 1.8 | 
O=C(/C=C/c1ccccc1C(F)(F)F)NCCCCCCNc1c2c(nc3ccccc13)CCCC2 [Compound 21, (E)-N-(6-((1,2,3,4-tetrahydroacridin-9-yl)amino)hexyl)-3–(2-(trifluoromethyl)phenyl)acrylamide] | 2.4 ± 0.6 nM | 41.7 ± 8.5 nM | 0.04 | 
O=C(/C=C/c1cccc(C(F)(F)F)c1)NCCCCCCNc1c2c(nc3ccccc13)CCCC2 [Compound 22, (E)-N-(6-((1,2,3,4-tetrahydroacridin-9-yl)amino)hexyl)-3–(3-(trifluoromethyl)phenyl)acrylamide] | 81.1 ± 15.7 nM | 61.3 ± 16.7 nM | 1.3 | 
O=C(/C=C/c1ccc(C(F)(F)F)cc1)NCCCCCCNc1c2c(nc3ccccc13)CCCC2 [Compound 23, (E)-N-(6-((1,2,3,4-tetrahydroacridin-9-yl)amino)hexyl)-3–(4-(trifluoromethyl)phenyl)acrylamide] | 16.4 ± 1.8 nM | 8.1 ± 0.3 nM | 2.0 | 
O=C(/C=C/c1ccc(F)cc1)NCCCCCCNc1c2c(nc3ccccc13)CCCC2 [Compound 24, (E)-3-(4-fluorophenyl)-N-(6-((1,2,3,4-tetrahydroacridin-9-yl)amino)hexyl)acrylamide] | 65.9 ± 21.4 nM | 15.4 ± 3.3 nM | 4.3 | 
O=C(/C=C/c1ccccc1Cl)NCCCCCCNc1c2c(nc3ccccc13)CCCC2 [Compound 25, (E)-3-(2-chlorophenyl)-N-(6-((1,2,3,4-tetrahydroacridin-9-yl)amino)hexyl)acrylamide] | 8.7 ± 2.7 nM | 14.2 ± 3.2 nM | 0.6 | 
O=C(/C=C/c1cccc(Cl)c1)NCCCCCCNc1c2c(nc3ccccc13)CCCC2 [Compound 26, (E)-3-(3-chlorophenyl)-N-(6-((1,2,3,4-tetrahydroacridin-9-yl)amino)hexyl)acrylamide] | 9.2 ± 2.5 nM | 16.2 ± 6.5 nM | 0.6 | 
O=C(/C=C/c1ccc(Br)cc1)NCCCCCCNc1c2c(nc3ccccc13)CCCC2 [Compound 28, (E)-3-(4-bromophenyl)-N-(6-((1,2,3,4-tetrahydroacridin-9-yl)amino)hexyl)acrylamide] | 29.9 ± 1.8 nM | 19.1 ± 2 nM | 1.6 | 
N#Cc1cccc(/C=C/C(=O)NCCCCCCNc2c3c(nc4ccccc24)CCCC3)c1 [Compound 29] | 68.5 ± 13.6 nM | 5.1 ± 0.8 nM | 13.4 | 
COc1ccc(/C=C/C(=O)NCCCCCCNc2c3c(nc4ccccc24)CCCC3)c(OC)c1OC [Compound 31, (E)-N-(6-((1,2,3,4-tetrahydroacridin-9-yl)amino)hexyl)-3–(2,3,4-trimethoxyphenyl)acrylamide] | 8.1 ± 2 nM | 24.1 ± 8.1 nM | 0.3 | 
COc1cc(/C=C/C(=O)NCCCCCCNc2c3c(nc4ccccc24)CCCC3)cc(OC)c1OC [Compound 32, (E)-N-(6-((1,2,3,4-tetrahydroacridin-9-yl)amino)hexyl)-3–(3,4,5-trimethoxyphenyl)acrylamide] | 3.4 ± 0.4 nM | 6.4 ± 2.2 nM | 0.5 | 
O=C(/C=C/c1cccc(O)c1)NCCCCCCNc1c2c(nc3ccccc13)CCCC2 [Compound 33, (E)-3-(3-hydroxyphenyl)-N-(6-((1,2,3,4-tetrahydroacridin-9-yl)amino)hexyl)acrylamide] | 25.1 ± 6.5 nM | 6.4 ± 2.1 nM | 3.9 | 
O=C(/C=C/c1ccc(O)cc1)NCCCCCCNc1c2c(nc3ccccc13)CCCC2 [Compound 34, (E)-3-(4-hydroxyphenyl)-N-(6-((1,2,3,4-tetrahydroacridin-9-yl)amino)hexyl)acrylamide] | 43.5 ± 9.3 nM | 2.2 ± 0.3 nM | 19.8 | 
COc1cc(/C=C/C(=O)NCCCCCCNc2c3c(nc4ccccc24)CCCC3)ccc1OCc1ccccc1 [Compound 36] | 29.8 ± 7.3 nM | 86.3 ± 30 nM | 0.3 | 
COc1cc(/C=C/C(=O)NCCCCCCNc2c3c(nc4ccccc24)CCCC3)ccc1OCc1ccc(Cl)cc1 [Compound 37] | 22.6 ± 7.1 nM | 104 ± 26.4 nM |  | 
COc1cc(/C=C/C(=O)NCCCCCCNc2c3c(nc4ccccc24)CCCC3)ccc1OCc1ccc(C)cc1 [Compound 38] | 58.4 ± 7.5 nM | 128 ± 13.3 nM | 0.5 | 
